Laboratory results published in the supplement of paper PMC10307832.

What was measured:
Test in all cases: relative viability (nuclei count vs DMSO), 5 days (fraction); higher = more cells survive
AZD8055 = compound: COc1ccc(-c2ccc3c(N4CCOC[C@@H]4C)nc(N4CCOC[C@@H]4C)nc3n2)cc1CO [AZD8055]
Method in brief: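 Five library-drug doses spaced by √10 were pinned onto vehicle-anchored 1536-well plates of lung cancer cell lines that had been kept overnight at 37 °C. Cells went 5 days without medium change, then were fixed, permeabilised and Hoechst-stained together, imaged at 4× and counted by MetaXpress. Viability is the ratio of treated-well to vehicle-well nuclei, taken as a median over plates. Plates required control CV below 25% and at least one doubling.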

AZD8055 + Tozasertib = compound: COc1ccc(-c2ccc3c(N4CCOC[C@@H]4C)nc(N4CCOC[C@@H]4C)nc3n2)cc1CO [AZD8055] + Cc1cc(Nc2cc(N3CCN(C)CC3)nc(Sc3ccc(NC(=O)C4CC4)cc3)n2)n[nH]1 [Tozasertib] (partner 0.1 µM)
Method in brief: (§1)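 Lung cancer cell lines were pin-tool dosed in 1536-well plates on the day after seeding, with either a lone drug or a fixed anchor-drug dose plus five library-drug doses (not always all listed) in √10 steps. Nuclei were counted on 4× images after 5 days. Relative viability is the ratio of treated-well to vehicle-well nuclei counts, with each value a median of duplicate plates.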

AZD8055 + Trametinib = compound: COc1ccc(-c2ccc3c(N4CCOC[C@@H]4C)nc(N4CCOC[C@@H]4C)nc3n2)cc1CO [AZD8055] + CC(=O)Nc1cccc(-n2c(=O)n(C3CC3)c(=O)c3c(Nc4ccc(I)cc4F)n(C)c(=O)c(C)c32)c1 [Trametinib] (partner 0.02 µM)
Method in brief: as §1

AZD8055 + AZD7762 = compound: COc1ccc(-c2ccc3c(N4CCOC[C@@H]4C)nc(N4CCOC[C@@H]4C)nc3n2)cc1CO [AZD8055] + NC(=O)Nc1cc(-c2cccc(F)c2)sc1C(=O)N[C@H]1CCCNC1 [AZD7762] (partner 0.2 µM)
Method in brief: as §1

Row | Cell Line | relative viability (AZD8055; 0.01 µM) | relative viability (AZD8055; 0.03162 µM) | relative viability (AZD8055; 0.1 µM) | relative viability (AZD8055; 0.3162 µM) | relative viability (AZD8055; 1 µM) | relative viability (AZD8055 + Tozasertib; first compound 0.01 µM) | relative viability (AZD8055 + Tozasertib; first compound 0.03162 µM) | relative viability (AZD8055 + Tozasertib; first compound 0.1 µM) | relative viability (AZD8055 + Tozasertib; first compound 0.3162 µM) | relative viability (AZD8055 + Tozasertib; first compound 1 µM) | relative viability (AZD8055 + Trametinib; first compound 0.01 µM) | relative viability (AZD8055 + Trametinib; first compound 0.03162 µM) | relative viability (AZD8055 + Trametinib; first compound 0.1 µM) | relative viability (AZD8055 + Trametinib; first compound 0.3162 µM) | relative viability (AZD8055 + Trametinib; first compound 1 µM) | relative viability (AZD8055 + AZD7762; first compound 0.01 µM) | relative viability (AZD8055 + AZD7762; first compound 0.03162 µM) | relative viability (AZD8055 + AZD7762; first compound 0.1 µM) | relative viability (AZD8055 + AZD7762; first compound 0.3162 µM) | relative viability (AZD8055 + AZD7762; first compound 1 µM)
1 | H3255 | 1.11 | 0.948 | 0.778 | 0.436 | 0.349 | 0.574 | 0.716 | 0.535 | 0.604 | 0.359 | 0.687 | 0.588 | 0.455 | 0.306 | 0.322 | 1.03 | 0.951 | 0.803 | 0.471 | 0.413
2 | EPLC-272H | 0.807 | 0.73 | 0.47 | 0.356 | 0.358 | 0.279 | 0.152 | 0.161 | 0.229 | 0.222 | 0.278 | 0.257 | 0.227 | 0.189 | 0.131 | 0.178 | 0.0952 | 0.243 | 0.109 | 0.127
3 | PC-3 [JPC-3] | 1.08 | 1.11 | 0.931 | 0.957 | 0.609 | 0.864 | 0.993 | 0.978 | 0.614 | 0.431 | 0.749 | 0.757 | 0.565 | 0.462 | 0.445 | 0.772 | 0.681 | 0.728 | 0.37 | 0.399
4 | NCI-H1793 | 0.669 | 0.443 | 0.287 | 0.212 | 0.222 | 0.299 | 0.219 | 0.154 | 0.136 | 0.145 | 0.449 | 0.274 | 0.279 | 0.183 | 0.22 | 0.379 | 0.264 | 0.197 | 0.145 | 0.127
5 | EKVX | 1.09 | 1.08 | 0.818 | 0.602 | 0.432 | 0.451 | 0.418 | 0.345 | 0.226 | 0.202 | 0.339 | 0.389 | 0.296 | 0.247 | 0.227 | 0.783 | 0.594 | 0.605 | 0.375 | 0.29
6 | ChaGo-K-1 | 1.02 | 0.998 | 0.952 | 0.858 | 0.722 | 0.214 | 0.213 | 0.213 | 0.168 | 0.175 | 1.03 | 0.884 | 0.858 | 0.66 | 0.628 | 0.957 | 0.832 | 0.828 | 0.703 | 0.645
7 | NCI-H23 | 1.09 | 0.804 | 0.662 | 0.371 | 0.373 | 0.486 | 0.311 | 0.248 | 0.24 | 0.235 | 0.277 | 0.314 | 0.33 | 0.227 | 0.22 | 0.202 | 0.245 | 0.233 | 0.161 | 0.14
8 | EMC-BAC-2 | 0.992 | 0.784 | 0.698 | 0.356 | 0.336 | 0.279 | 0.299 | 0.249 | 0.257 | 0.255 | 0.87 | 0.818 | 0.733 | 0.363 | 0.434 | 1.03 | 0.912 | 0.956 | 0.517 | 0.377
9 | LOU-NH91 | 0.931 | 0.934 | 0.724 | 0.633 | 0.624 | 0.735 | 0.716 | 0.693 | 0.672 | 0.506 | 0.765 | 0.74 | 0.64 | 0.564 | 0.587 | 0.684 | 0.702 | 0.621 | 0.557 | 0.555
10 | LU99A | 1.07 | 0.54 | 0.461 | 0.261 | 0.253 | 0.289 | 0.268 | 0.2 | 0.198 | 0.21 | 0.403 | 0.337 | 0.308 | 0.203 | 0.191 | 0.366 | 0.242 | 0.185 | 0.152 | 0.133
11 | NCI-H1395 | 0.869 | 0.648 | 0.739 | 0.488 | 0.427 | 0.752 | 0.581 | 0.562 | 0.488 | 0.44 | 0.977 | 0.793 | 0.712 | 0.514 | 0.544 | 0.384 | 0.405 | 0.443 | 0.34 | 0.419
12 | NCI-H460 | 1.13 | 0.995 | 0.798 | 0.416 | 0.264 | 0.648 | 0.675 | 0.529 | 0.208 | 0.124 | 0.144 | 0.129 | 0.0855 | 0.0696 | 0.0537 | 0.831 | 0.51 | 0.607 | 0.137 | 0.092
13 | 201T | 0.955 | 0.987 | 0.907 | 0.635 | 0.487 | 0.98 | 0.895 | 0.813 | 0.529 | 0.595 | 0.7 | 0.689 | 0.629 | 0.519 | 0.492 | 0.621 | 0.413 | 0.5 | 0.362 | 0.374
14 | NCI-H1944 | 1.01 | 0.786 | 0.673 | 0.335 | 0.316 | 0.243 | 0.253 | 0.206 | 0.171 | 0.166 | 0.411 | 0.378 | 0.292 | 0.228 | 0.191 | 0.455 | 0.453 | 0.393 | 0.268 | 0.202
15 | NCI-H2405 | 0.999 | 1 | 0.797 | 0.406 | 0.407 | 0.812 | 0.815 | 0.676 | 0.448 | 0.344 | 0.555 | 0.494 | 0.43 | 0.282 | 0.27 | 0.832 | 0.779 | 0.621 | 0.324 | 0.313
16 | NCI-H1703 | 0.822 | 0.715 | 0.634 | 0.265 | 0.332 |  |  |  |  |  |  |  |  |  |  | 0.127 | 0.125 | 0.115 | 0.115 | 0.095
